# Data from ChEMBL document CHEMBL1938343, “Lead optimisation of selective non-zinc binding inhibitors of MMP13. Part 2” (Bioorg Med Chem Lett, 2012).
# Assays:
# [1] = Thermodynamic solubility of the compound
# [2] = Oral bioavailability in dog; format: ADME, organism-based, Canis lupus familiaris; details: in vivo
# [3] = Fraction unbound in rat; format: ADME, organism-based; details: in vivo
# [4] = molecular target: Cytochrome P450 2D6 (Homo sapiens, UniProt P10635); assay: Inhibition of CYP2D6; format: ADME; details: read-out: IC50
# Sequence of Cytochrome P450 2D6 (P10635 whole entry): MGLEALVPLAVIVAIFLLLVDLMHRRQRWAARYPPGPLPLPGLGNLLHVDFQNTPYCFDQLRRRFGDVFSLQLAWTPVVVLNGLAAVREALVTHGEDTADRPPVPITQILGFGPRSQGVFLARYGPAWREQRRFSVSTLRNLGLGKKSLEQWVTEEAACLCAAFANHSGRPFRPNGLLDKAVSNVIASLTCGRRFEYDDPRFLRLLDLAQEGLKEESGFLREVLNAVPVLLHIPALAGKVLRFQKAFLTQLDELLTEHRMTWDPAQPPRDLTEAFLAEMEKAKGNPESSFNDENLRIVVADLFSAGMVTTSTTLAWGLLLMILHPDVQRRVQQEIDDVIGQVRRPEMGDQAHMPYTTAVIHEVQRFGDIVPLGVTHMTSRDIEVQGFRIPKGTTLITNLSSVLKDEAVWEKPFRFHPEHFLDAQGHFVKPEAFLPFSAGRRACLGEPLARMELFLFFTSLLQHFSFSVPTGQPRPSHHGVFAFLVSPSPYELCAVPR
# [5] = Clearance in dog at 1 mg/kg, iv and 1 mg/kg, po; format: ADME, organism-based, Canis lupus familiaris; details: in vivo
# [6] = molecular target: Matrix metalloproteinase-14 (Homo sapiens, UniProt P50281); assay: Inhibition of MMP14 using Mca-Pro-cyclohexyl-Ala-Gly-Nva-His-Ala- Dap(Dnp)-NH2 as substrate by fluorometric analysis; details: read-out: IC50
# [7] = Half life in rat at 2 mg/kg, iv; format: ADME, organism-based; set-up: dose 2 mg/kg, route intravenous; details: in vivo
# [8] = Volume of distribution at steady state in dog at 1 mg/kg, iv and 1 mg/kg, po; format: ADME, organism-based, Canis lupus familiaris; details: in vivo, read-out: Vdss
# [9] = molecular target: T1, Matrix metalloproteinase-19 (Homo sapiens, UniProt Q99542); assay: Inhibition of MMP19 using Mca-Pro-cyclohexyl-Ala-Gly-Nva-His-Ala- Dap(Dnp)-NH2 as substrate by fluorometric analysis
# T1 sequence (Q99542 whole entry): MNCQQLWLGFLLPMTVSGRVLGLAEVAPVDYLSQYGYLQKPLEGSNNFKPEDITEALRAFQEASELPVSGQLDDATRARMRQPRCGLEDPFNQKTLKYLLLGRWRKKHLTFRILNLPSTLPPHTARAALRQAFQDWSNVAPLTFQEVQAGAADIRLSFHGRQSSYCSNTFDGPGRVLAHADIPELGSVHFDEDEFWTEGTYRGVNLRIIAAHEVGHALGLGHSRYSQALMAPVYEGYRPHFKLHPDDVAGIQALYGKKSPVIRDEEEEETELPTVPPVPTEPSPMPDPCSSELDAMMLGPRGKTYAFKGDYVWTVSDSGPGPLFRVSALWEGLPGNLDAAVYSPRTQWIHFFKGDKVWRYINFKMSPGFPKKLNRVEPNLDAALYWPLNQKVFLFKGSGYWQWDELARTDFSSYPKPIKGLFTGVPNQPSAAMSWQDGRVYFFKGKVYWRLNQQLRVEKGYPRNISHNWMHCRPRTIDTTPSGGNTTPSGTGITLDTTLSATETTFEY
# [10] = molecular target: Cytochrome P450 3A4 (Homo sapiens, UniProt P08684); assay: Inhibition of CYP3A4; format: ADME; details: read-out: IC50
# Sequence of Cytochrome P450 3A4 (P08684 whole entry): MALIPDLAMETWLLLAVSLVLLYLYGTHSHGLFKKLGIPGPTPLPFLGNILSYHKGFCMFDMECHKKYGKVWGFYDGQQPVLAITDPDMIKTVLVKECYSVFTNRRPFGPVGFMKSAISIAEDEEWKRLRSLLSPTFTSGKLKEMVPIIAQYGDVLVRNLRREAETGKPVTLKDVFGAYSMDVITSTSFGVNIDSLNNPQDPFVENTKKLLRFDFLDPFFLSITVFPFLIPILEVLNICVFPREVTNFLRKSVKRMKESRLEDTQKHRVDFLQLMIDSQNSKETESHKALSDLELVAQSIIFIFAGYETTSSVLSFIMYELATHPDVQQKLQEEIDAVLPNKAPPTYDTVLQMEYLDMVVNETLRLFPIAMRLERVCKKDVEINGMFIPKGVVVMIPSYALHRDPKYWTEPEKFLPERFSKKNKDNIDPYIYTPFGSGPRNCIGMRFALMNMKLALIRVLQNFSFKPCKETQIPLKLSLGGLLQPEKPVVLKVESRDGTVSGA
# [11] = Half life in dog at 1 mg/kg, iv and 1 mg/kg, po; format: ADME, organism-based, Canis lupus familiaris; details: in vivo
# [12] = molecular target: Stromelysin-1 (Homo sapiens, UniProt P08254); assay: Inhibition of MMP3 using Mca-Pro-cyclohexyl-Ala-Gly-Nva-His-Ala- Dap(Dnp)-NH2 as substrate by fluorometric analysis
# Sequence of Stromelysin-1 (P08254 whole entry): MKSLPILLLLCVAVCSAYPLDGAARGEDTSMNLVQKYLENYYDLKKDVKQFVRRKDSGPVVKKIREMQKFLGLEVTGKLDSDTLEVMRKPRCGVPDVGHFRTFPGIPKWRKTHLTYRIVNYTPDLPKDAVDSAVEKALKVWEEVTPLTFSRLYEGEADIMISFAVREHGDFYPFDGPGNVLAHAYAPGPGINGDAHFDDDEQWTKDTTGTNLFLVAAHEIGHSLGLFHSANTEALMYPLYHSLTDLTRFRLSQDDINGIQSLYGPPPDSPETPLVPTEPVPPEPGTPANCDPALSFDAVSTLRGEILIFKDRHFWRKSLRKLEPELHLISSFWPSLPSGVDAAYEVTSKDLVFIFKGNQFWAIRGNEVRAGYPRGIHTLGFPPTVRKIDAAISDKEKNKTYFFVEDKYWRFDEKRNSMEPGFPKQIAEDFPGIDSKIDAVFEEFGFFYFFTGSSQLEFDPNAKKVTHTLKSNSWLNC
# [13] = Intrinsic clearance in human hepatocytes assessed per 10^6 cells; format: ADME, cell-based, Hepatocyte; details: read-out: CLH
# [14] = Lipophilicity, log D of the compound; details: octanol/water
# [15] = Fraction unbound in dog; format: ADME, organism-based, Canis lupus familiaris; details: in vivo
# [16] = Renal elimination in rat at 2 mg/kg, iv; format: ADME, organism-based; set-up: dose 2 mg/kg, route intravenous; details: urine, read-out: Ae
# [17] = molecular target: Cytochrome P450 2C19 (Homo sapiens, UniProt P33261); assay: Inhibition of CYP2C19; format: ADME; details: read-out: IC50
# Sequence of Cytochrome P450 2C19 (P33261 whole entry): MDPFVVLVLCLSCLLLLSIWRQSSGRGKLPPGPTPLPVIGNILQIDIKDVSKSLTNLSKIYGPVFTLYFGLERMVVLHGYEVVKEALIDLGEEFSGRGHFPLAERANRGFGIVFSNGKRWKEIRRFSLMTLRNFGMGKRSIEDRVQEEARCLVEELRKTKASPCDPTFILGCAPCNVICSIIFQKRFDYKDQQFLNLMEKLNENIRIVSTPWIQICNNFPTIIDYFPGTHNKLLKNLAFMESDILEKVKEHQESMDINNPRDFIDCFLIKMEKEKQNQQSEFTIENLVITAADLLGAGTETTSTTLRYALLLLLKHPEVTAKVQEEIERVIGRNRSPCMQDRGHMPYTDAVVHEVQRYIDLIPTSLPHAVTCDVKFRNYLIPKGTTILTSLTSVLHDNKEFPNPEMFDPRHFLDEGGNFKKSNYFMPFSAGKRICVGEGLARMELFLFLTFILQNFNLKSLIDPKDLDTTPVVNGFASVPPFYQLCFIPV
# [18] = Cytotoxicity in mouse spleen macrophages assessed as phospholipidosis; details: Macrophage
# [19] = Apparent permeability across apical to basolateral side in human Caco2 cells at 10 uM; format: ADME, cell-based; details: Caco-2
# [20] = Volume of distribution at steady state in rat at 2 mg/kg, iv; format: ADME, organism-based; set-up: dose 2 mg/kg, route intravenous; details: in vivo, read-out: Vdss
# [21] = Apparent permeability across basolateral to apical side in human Caco2 cells at 10 uM; format: ADME, cell-based; details: Caco-2
# [22] = Fraction unbound in human; format: ADME, organism-based; details: in vivo
# [23] = tested on: Rattus norvegicus; assay: Oral bioavailability in rat; format: ADME, organism-based; details: in vivo
# [24] = tested on: Hepatocyte; assay: Intrinsic clearance in Sprague-Dawley rat hepatocytes assessed per 10^6 cells; format: ADME, cell-based
# [25] = molecular target: Matrix metalloproteinase-9 (Homo sapiens, UniProt P14780); assay: Inhibition of MMP9 using Mca-Pro-cyclohexyl-Ala-Gly-Nva-His-Ala- Dap(Dnp)-NH2 as substrate by fluorometric analysis; details: read-out: IC50
# Sequence of Matrix metalloproteinase-9 (P14780 whole entry): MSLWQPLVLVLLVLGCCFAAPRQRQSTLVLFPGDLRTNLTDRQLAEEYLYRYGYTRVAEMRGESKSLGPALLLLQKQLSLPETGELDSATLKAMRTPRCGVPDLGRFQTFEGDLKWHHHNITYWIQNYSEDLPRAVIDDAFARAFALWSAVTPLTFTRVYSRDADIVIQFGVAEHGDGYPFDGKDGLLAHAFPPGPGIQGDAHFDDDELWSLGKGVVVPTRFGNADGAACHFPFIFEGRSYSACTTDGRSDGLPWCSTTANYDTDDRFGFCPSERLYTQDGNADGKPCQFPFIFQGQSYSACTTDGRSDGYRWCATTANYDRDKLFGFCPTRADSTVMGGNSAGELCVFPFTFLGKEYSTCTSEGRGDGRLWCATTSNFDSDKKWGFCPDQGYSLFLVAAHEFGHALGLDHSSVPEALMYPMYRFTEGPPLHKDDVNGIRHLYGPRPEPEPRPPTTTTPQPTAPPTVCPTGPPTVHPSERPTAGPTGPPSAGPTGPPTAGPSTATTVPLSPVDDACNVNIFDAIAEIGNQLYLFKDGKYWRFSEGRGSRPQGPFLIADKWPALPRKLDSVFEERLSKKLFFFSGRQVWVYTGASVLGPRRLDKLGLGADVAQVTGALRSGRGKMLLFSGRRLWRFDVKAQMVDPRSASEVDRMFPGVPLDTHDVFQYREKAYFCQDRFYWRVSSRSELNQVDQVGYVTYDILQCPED
# [26] = molecular target: Cytochrome P450 2C9 (Homo sapiens, UniProt P11712); assay: Inhibition of CYP2C9; format: ADME; details: read-out: IC50
# Sequence of Cytochrome P450 2C9 (P11712 whole entry): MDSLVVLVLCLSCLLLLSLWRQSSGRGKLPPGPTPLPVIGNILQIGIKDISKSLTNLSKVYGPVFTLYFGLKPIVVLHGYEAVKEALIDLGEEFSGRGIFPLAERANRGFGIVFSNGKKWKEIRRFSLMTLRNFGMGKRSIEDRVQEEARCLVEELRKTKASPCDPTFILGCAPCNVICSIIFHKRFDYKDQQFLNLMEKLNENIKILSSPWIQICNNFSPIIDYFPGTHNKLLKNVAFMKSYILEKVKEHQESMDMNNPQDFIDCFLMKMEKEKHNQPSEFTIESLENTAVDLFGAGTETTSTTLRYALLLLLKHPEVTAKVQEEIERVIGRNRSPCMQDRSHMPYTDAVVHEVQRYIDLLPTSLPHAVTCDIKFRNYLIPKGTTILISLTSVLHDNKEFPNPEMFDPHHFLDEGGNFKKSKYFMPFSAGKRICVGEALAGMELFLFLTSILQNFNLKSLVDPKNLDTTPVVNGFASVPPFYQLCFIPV
# [27] = molecular target: 72 kDa type IV collagenase (Homo sapiens, UniProt P08253); assay: Inhibition of MMP2 using Mca-Pro-cyclohexyl-Ala-Gly-Nva-His-Ala- Dap(Dnp)-NH2 as substrate by fluorometric analysis; details: read-out: IC50
# Sequence of 72 kDa type IV collagenase (P08253 whole entry): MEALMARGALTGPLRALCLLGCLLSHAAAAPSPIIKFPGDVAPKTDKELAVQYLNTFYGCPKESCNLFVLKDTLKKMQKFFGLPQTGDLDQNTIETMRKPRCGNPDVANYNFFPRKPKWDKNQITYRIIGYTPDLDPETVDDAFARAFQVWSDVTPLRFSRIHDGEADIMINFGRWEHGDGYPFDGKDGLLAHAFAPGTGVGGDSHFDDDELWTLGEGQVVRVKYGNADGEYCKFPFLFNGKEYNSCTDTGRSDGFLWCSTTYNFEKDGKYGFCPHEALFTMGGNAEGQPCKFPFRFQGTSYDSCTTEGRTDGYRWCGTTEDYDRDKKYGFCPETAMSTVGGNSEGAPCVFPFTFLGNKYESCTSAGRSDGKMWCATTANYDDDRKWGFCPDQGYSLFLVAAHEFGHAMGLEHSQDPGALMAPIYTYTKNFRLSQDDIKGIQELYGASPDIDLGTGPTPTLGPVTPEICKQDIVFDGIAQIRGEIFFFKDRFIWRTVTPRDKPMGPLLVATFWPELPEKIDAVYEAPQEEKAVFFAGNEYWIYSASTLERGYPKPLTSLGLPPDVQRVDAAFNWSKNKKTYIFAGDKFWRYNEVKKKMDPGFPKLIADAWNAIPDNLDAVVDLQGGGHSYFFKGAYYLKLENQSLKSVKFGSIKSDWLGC
# [28] = molecular target: Macrophage metalloelastase (Homo sapiens, UniProt P39900); assay: Inhibition of MMP12 using Mca-Pro-cyclohexyl-Ala-Gly-Nva-His-Ala- Dap(Dnp)-NH2 as substrate by fluorometric analysis; details: read-out: IC50
# Sequence of Macrophage metalloelastase (P39900 whole entry): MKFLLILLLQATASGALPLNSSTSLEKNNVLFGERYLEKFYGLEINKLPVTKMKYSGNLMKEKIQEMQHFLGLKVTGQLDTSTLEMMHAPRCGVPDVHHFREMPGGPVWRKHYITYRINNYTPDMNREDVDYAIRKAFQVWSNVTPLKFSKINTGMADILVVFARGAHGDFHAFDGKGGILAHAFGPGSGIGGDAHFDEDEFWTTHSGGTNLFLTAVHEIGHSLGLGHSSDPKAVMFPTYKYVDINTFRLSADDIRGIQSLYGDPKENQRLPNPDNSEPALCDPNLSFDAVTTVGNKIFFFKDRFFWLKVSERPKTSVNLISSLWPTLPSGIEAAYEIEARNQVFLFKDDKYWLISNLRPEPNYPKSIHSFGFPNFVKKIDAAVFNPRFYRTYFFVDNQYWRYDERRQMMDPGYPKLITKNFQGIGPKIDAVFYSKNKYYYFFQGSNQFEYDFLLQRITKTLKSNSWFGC
# [29] = molecular target: T2, Interstitial collagenase (Homo sapiens, UniProt P03956); assay: Inhibition of MMP1 using Mca-Pro-cyclohexyl-Ala-Gly-Nva-His-Ala- Dap(Dnp)-NH2 as substrate by fluorometric analysis
# T2 sequence (P03956 whole entry): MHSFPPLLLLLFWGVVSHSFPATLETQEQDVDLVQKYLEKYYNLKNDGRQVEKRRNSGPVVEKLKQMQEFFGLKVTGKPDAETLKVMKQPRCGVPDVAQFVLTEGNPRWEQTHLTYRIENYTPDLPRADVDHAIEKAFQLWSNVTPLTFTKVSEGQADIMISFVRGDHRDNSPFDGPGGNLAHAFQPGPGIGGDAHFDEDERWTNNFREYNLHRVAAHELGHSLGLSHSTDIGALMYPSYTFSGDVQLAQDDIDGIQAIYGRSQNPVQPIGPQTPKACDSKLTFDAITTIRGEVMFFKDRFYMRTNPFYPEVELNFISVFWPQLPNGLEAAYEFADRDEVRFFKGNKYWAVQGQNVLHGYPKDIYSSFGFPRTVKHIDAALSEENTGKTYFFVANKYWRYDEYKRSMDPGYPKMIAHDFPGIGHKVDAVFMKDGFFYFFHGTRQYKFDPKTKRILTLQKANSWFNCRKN
smiles,measurement,setting,value
"O=C(NC1CCCS(=O)(=O)C1)c1ccc(Oc2ccc(C#C[C@]3(O)CN4CCC3CC4)cc2)cc1 (single isomer, unassigned; diastereomer 1)",Therm_solubility,[1],160 µM
same,bioavailability,[2],21%
same,fraction unbound,[3],0.27
same,IC50,[4],> 10 µM
same,clearance,[5],13 mL/min/kg
same,IC50,[6],> 10 µM
same,half-life,[7],288 min
same,Vd,[8],3.9 L/kg
same,IC50,[9],> 10 µM
same,IC50,[10],> 10 µM
same,half-life,[11],300 min
same,IC50,[12],> 10 µM
same,hepatocyte CLint,[13],< 2 µL/min/1e6 cells
same,logD,[14],1.4
same,fraction unbound,[15],0.33
same,dose excreted,[16],< 1%
same,IC50,[17],> 10 µM
same,EC50,[18],116 µM
same,Papp A→B at 10 µM,[19],1.3 ×10⁻⁶ cm/s
same,Vd,[20],5.9 L/kg
same,Papp B→A at 10 µM,[21],43.5 ×10⁻⁶ cm/s
same,fraction unbound,[22],0.25
same,F,[23],35%
same,CLH,[24],2.9 µL/min
same,IC50,[25],> 10 µM
same,IC50,[26],> 10 µM
same,IC50,[27],5.1 µM
same,IC50,[28],> 10 µM
same,IC50,[29],> 10 µM
